Measured values taken from patent US20260317299A1, “PIKFYVE PROTEIN KINASE DEGRADATION AGENT AND USE THEREOF” (Shanghai Institute of Organic Chemistry, Chinese Academy of …, priority 2023, published 2026).

Target: T1, PIKfyve (Homo sapiens, UniProt Q9Y2I7)
T1 construct: endogenous in cells; host or cells: VCaP
Experiment: Degradation of PIKfyve proteins in VCaP tumor cells (24 h, Western blot)
Type: cell-based
Details: 37° C., compared with DMSO control, WB, read-out: DC50 (concentration that achieves 50% degradation activity)
In short: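 VCaP cells (5×10^6 cells/ml) treated with a range of compound concentrations at 37° C for 24 h, then lysed in SDS buffer. PIKfyve level measured by Western blot with GAPDH as loading control and ECL detection. DC50 is the concentration giving 50% degradation relative to DMSO control.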

T1 sequence (Q9Y2I7 whole entry): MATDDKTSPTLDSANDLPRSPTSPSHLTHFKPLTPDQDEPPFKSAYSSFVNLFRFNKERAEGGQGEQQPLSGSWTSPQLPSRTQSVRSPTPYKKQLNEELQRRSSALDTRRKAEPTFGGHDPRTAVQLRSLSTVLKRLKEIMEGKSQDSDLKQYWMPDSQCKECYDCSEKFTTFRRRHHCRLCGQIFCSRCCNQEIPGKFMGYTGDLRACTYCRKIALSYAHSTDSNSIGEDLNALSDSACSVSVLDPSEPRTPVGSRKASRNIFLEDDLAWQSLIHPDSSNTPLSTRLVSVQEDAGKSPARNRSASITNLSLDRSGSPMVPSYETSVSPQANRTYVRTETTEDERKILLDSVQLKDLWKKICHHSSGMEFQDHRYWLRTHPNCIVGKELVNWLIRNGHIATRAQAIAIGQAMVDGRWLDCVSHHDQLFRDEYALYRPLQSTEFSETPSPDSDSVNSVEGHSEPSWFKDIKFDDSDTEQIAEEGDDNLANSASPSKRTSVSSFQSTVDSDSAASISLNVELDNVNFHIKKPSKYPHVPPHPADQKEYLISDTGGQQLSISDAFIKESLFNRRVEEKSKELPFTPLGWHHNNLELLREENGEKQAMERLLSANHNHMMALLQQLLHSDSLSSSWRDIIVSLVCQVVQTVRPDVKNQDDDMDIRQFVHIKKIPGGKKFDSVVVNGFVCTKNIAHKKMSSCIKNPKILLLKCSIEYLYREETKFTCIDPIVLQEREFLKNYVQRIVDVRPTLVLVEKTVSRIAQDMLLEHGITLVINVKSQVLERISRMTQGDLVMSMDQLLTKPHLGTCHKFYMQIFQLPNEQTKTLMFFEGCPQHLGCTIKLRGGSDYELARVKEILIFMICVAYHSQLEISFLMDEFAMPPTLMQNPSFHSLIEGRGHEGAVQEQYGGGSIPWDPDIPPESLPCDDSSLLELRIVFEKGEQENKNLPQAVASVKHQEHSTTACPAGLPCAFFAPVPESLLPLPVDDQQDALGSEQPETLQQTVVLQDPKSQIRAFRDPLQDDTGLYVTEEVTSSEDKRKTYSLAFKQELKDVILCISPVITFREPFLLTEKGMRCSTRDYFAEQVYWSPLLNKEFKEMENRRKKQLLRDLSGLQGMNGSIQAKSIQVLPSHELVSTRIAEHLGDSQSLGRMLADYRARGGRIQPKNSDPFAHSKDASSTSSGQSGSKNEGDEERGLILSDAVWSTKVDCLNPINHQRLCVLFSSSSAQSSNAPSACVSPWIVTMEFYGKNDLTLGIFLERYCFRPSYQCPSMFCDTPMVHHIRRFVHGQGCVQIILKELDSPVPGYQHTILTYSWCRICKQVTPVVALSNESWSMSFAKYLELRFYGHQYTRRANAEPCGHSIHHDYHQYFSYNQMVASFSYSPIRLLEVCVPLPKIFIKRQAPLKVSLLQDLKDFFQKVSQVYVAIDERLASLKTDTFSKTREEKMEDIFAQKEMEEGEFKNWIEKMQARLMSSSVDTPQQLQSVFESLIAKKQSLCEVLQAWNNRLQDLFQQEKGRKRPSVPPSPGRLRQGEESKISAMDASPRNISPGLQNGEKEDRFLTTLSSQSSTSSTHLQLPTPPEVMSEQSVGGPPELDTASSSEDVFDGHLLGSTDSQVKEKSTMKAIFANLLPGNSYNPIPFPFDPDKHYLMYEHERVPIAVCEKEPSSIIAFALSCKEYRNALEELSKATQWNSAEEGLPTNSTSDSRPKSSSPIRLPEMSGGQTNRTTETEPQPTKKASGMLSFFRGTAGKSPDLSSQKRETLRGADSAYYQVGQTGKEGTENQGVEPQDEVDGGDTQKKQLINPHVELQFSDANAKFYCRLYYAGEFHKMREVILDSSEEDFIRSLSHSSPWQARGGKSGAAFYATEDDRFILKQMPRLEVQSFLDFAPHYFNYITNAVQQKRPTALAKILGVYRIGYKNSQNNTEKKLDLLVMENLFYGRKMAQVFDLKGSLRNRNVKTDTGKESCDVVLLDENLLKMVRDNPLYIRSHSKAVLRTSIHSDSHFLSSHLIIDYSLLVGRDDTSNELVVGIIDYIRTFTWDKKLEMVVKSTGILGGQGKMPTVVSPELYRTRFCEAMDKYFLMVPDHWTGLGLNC

DC50	SMILES
1 to 100 nM	Cc1cccc(-c2ccn(-c3cc(N4CCOCC4)nc(OC4CCN(c5ccc(NC(=O)CCCC[C@H](NC(=O)[C@@H]6C[C@@H](O)CN6C(=O)[C@@H](NC(=O)C6(F)CC6)C(C)(C)C)c6ccc(-c7scnc7C)cc6)cc5)CC4)n3)n2)c1 [Example 69, (2S,4R)-1-((S)-2-(1-fluorocyclopropane-1-carboxamido)-3,3-dimethylbutanoyl)-4-hydroxy-N—((S)-1-(4-(4-methylthiazol-5-yl)phenyl)-6-((4-(4-((4-morpholino-6-(3-(m-tolyl)-1H-pyrazol-1-yl)pyrimidin-2-yl)oxy)piperidin-1-yl)phenyl)amino)-6-oxohexyl)pyrrolidine-2-carboxamide]
1 to 100 nM	Cc1cccc(-c2ccn(-c3cc(N4CCOCC4)nc(OCCc4ccc(C#CC5CCN(C(=O)CC[C@H](NC(=O)[C@@H]6C[C@@H](O)CN6C(=O)[C@@H](NC(=O)C6(F)CC6)C(C)(C)C)c6ccc(-c7scnc7C)cc6)CC5)cc4)n3)n2)c1 [Example 71, (2S,4R)-1-((S)-2-(1-fluorocyclopropane-1-carboxamido)-3,3-dimethylbutanoyl)-4-hydroxy-N—((S)-1-(4-(4-methylthiazol-5-yl)phenyl)-4-(4-((4-(2-((4-morpholino-6-(3-(m-tolyl)-1H-pyrazol-1-yl)pyrimidin-2-yl)oxy)ethyl)phenyl)ethynyl)piperidin-1-yl)-4-oxobutyl) pyrrolidine-2-carboxamide]
1 to 100 nM	Cc1cccc(-c2ccn(-c3cc(N4CCOCC4)nc(OCCc4ccc(NC(=O)NC5CN(C(=O)CC[C@H](NC(=O)[C@@H]6C[C@@H](O)CN6C(=O)[C@@H](NC(=O)C6(F)CC6)C(C)(C)C)c6ccc(-c7scnc7C)cc6)C5)cc4)n3)n2)c1 [Example 74, (2S,4R)-1-((S)-2-(1-fluorocyclopropane-1-carboxamido)-3,3-dimethylbutanoyl)-4-hydroxy-N—((S)-1-(4-(4-methylthiazol-5-yl)phenyl)-4-(3-(3-(4-(2-((4-morpholino-6-(3-(m-tolyl)-1H-pyrazol-1-yl)pyrimidin-2-yl)oxy)ethyl)phenyl)ureido)azetidin-1-yl)-4-oxobutyl) pyrrolidine-2-carboxamide]
1 to 100 nM	Cc1cccc(-c2ccn(-c3cc(N4CCOCC4)nc(OCCc4ccc(N5CCN(C(=O)CCCC[C@H](NC(=O)[C@@H]6C[C@@H](O)CN6C(=O)[C@@H](NC(=O)C6(F)CC6)C(C)(C)C)c6ccc(-c7scnc7C)cc6)CC5)cc4)n3)n2)c1 [Example 77, (2S,4R)-1-((S)-2-(1-fluorocyclopropane-1-carboxamido)-3,3-dimethylbutanoyl)-4-hydroxy-N—((S)-1-(4-(4-methylthiazol-5-yl)phenyl)-6-(4-(4-(2-((4-morpholino-6-(3-(m-tolyl)-1H-pyrazol-1-yl)pyrimidin-2-yl)oxy)ethyl)phenyl)piperazin-1-yl)-6-oxohexyl)pyrrolidine-2-carboxamide]
1 to 100 nM	Cc1cccc(-c2ccn(-c3cc(N4CCOCC4)nc(OCCc4ccc(NC(=O)NC5CCN(C(=O)CC[C@H](NC(=O)[C@@H]6C[C@@H](O)CN6C(=O)[C@@H](NC(=O)C6(F)CC6)C(C)(C)C)c6ccc(-c7scnc7C)cc6)CC5)cc4)n3)n2)c1 [Example 79, (2S,4R)-1-((S)-2-(1-fluorocyclopropane-1-carboxamido)-3,3-dimethylbutanoyl)-4-hydroxy-N—((S)-1-(4-(4-methylthiazol-5-yl)phenyl)-4-(4-(3-(4-(2-((4-morpholino-6-(3-(m-tolyl)-1H-pyrazol-1-yl)pyrimidin-2-yl)oxy)ethyl)phenyl)ureido)piperidin-1-yl)-4-oxobutyl) pyrrolidine-2-carboxamide]

Continued, compound first:

SMILES	DC50
Cc1cccc(-c2ccn(-c3cc(N4CCOCC4)nc(OCCc4ccc(NC(=O)CCCCCNC(=O)COc5cc(-c6scnc6C)ccc5CNC(=O)[C@@H]5C[C@@H](O)CN5C(=O)[C@@H](NC(=O)C5(F)CC5)C(C)(C)C)cc4)n3)n2)c1 [Example 66, (2S,4R)-1-((S)-2-(1-fluorocyclopropane-1-carboxamido)-3,3-dimethylbutanoyl)-4-hydroxy-N-(4-(4-methylthiazol-5-yl)-2-(2-((6-((4-(2-((4-morpholino-6-(3-(m-tolyl)-1H-pyrazol-1-yl)pyrimidin-2-yl)oxy)ethyl)phenyl)amino)-6-oxohexyl)amino)-2-oxoethoxy)benzyl) pyrrolidine-2-carboxamide]	1 to 100 nM
Cc1cccc(-c2ccn(-c3cc(N4CCOCC4)nc(OC4CCN(c5ccc(NC(=O)C[C@H](NC(=O)[C@@H]6C[C@@H](O)CN6C(=O)[C@@H](NC(=O)C6(F)CC6)C(C)(C)C)c6ccc(-c7scnc7C)cc6)cc5)CC4)n3)n2)c1 [Example 67, (2S,4R)-1-((S)-2-(1-fluorocyclopropane-1-carboxamido)-3,3-dimethylbutanoyl)-4-hydroxy-N—((S)-1-(4-(4-methylthiazol-5-yl)phenyl)-3-((4-(4-((4-morpholino-6-(3-(m-tolyl)-1H-pyrazol-1-yl)pyrimidin-2-yl)oxy)piperidin-1-yl)phenyl)amino)-3-oxopropyl)pyrrolidine-2-carboxamide]	1 to 100 nM
Cc1cccc(-c2ccn(-c3cc(N4CCOCC4)nc(OC4CCN(c5ccc(NC(=O)CC[C@H](NC(=O)[C@@H]6C[C@@H](O)CN6C(=O)[C@@H](NC(=O)C6(F)CC6)C(C)(C)C)c6ccc(-c7scnc7C)cc6)cc5)CC4)n3)n2)c1 [Example 68, (2S,4R)-1-((S)-2-(1-fluorocyclopropane-1-carboxamido)-3,3-dimethylbutanoyl)-4-hydroxy-N—((S)-1-(4-(4-methylthiazol-5-yl)phenyl)-4-((4-(4-((4-morpholino-6-(3-(m-tolyl)-1H-pyrazol-1-yl)pyrimidin-2-yl)oxy)piperidin-1-yl)phenyl)amino)-4-oxobutyl)pyrrolidine-2-carboxamide]	1 to 100 nM
Cc1cccc(-c2ccn(-c3cc(N4CCOCC4)nc(OCCc4ccc(C#CC5CCN(C(=O)C[C@H](NC(=O)[C@@H]6C[C@@H](O)CN6C(=O)[C@@H](NC(=O)C6(F)CC6)C(C)(C)C)c6ccc(-c7scnc7C)cc6)CC5)cc4)n3)n2)c1 [Example 70, (2S,4R)-1-((S)-2-(1-fluorocyclopropane-1-carboxamido)-3,3-dimethylbutanoyl)-4-hydroxy-N—((S)-1-(4-(4-methylthiazol-5-yl)phenyl)-3-(4-((4-(2-((4-morpholino-6-(3-(m-tolyl)-1H-pyrazol-1-yl)pyrimidin-2-yl)oxy)ethyl)phenyl)ethynyl)piperidin-1-yl)-3-oxopropyl) pyrrolidine-2-carboxamide]	1 to 100 nM
Cc1cccc(-c2ccn(-c3cc(N4CCOCC4)nc(OCCc4ccc(C#CC5CCN(C(=O)CCCC[C@H](NC(=O)[C@@H]6C[C@@H](O)CN6C(=O)[C@@H](NC(=O)C6(F)CC6)C(C)(C)C)c6ccc(-c7scnc7C)cc6)CC5)cc4)n3)n2)c1 [Example 72, (2S,4R)-1-((S)-2-(1-fluorocyclopropane-1-carboxamido)-3,3-dimethylbutanoyl)-4-hydroxy-N—((S)-1-(4-(4-methylthiazol-5-yl)phenyl)-6-(4-((4-(2-((4-morpholino-6-(3-(m-tolyl)-1H-pyrazol-1-yl)pyrimidin-2-yl)oxy)ethyl)phenyl)ethynyl)piperidin-1-yl)-6-oxohexyl) pyrrolidine-2-carboxamide]	1 to 100 nM
Cc1cccc(-c2ccn(-c3cc(N4CCOCC4)nc(OCCc4ccc(NC(=O)NC5CN(C(=O)C[C@H](NC(=O)[C@@H]6C[C@@H](O)CN6C(=O)[C@@H](NC(=O)C6(F)CC6)C(C)(C)C)c6ccc(-c7scnc7C)cc6)C5)cc4)n3)n2)c1 [Example 73, (2S,4R)-1-((S)-2-(1-fluorocyclopropane-1-carboxamido)-3,3-dimethylbutanoyl)-4-hydroxy-N—((S)-1-(4-(4-methylthiazol-5-yl)phenyl)-3-(3-(3-(4-(2-((4-morpholino-6-(3-(m-tolyl)-1H-pyrazol-1-yl)pyrimidin-2-yl)oxy)ethyl)phenyl)ureido)azetidin-1-yl)-3-oxopropyl) pyrrolidine-2-carboxamide]	1 to 100 nM
Cc1cccc(-c2ccn(-c3cc(N4CCOCC4)nc(OCCc4ccc(N5CCN(C(=O)C[C@H](NC(=O)[C@@H]6C[C@@H](O)CN6C(=O)[C@@H](NC(=O)C6(F)CC6)C(C)(C)C)c6ccc(-c7scnc7C)cc6)CC5)cc4)n3)n2)c1 [Example 75, (2S,4R)-1-((S)-2-(1-fluorocyclopropane-1-carboxamido)-3,3-dimethylbutanoyl)-4-hydroxy-N—((S)-1-(4-(4-methylthiazol-5-yl)phenyl)-3-(4-(4-(2-((4-morpholino-6-(3-(m-tolyl)-1H-pyrazol-1-yl)pyrimidin-2-yl)oxy)ethyl)phenyl)piperazin-1-yl)-3-oxopropyl)pyrrolidine-2-carboxamide]	1 to 100 nM
Cc1cccc(-c2ccn(-c3cc(N4CCOCC4)nc(OCCc4ccc(N5CCN(C(=O)CC[C@H](NC(=O)[C@@H]6C[C@@H](O)CN6C(=O)[C@@H](NC(=O)C6(F)CC6)C(C)(C)C)c6ccc(-c7scnc7C)cc6)CC5)cc4)n3)n2)c1 [Example 76, (2S,4R)-1-((S)-2-(1-fluorocyclopropane-1-carboxamido)-3,3-dimethylbutanoyl)-4-hydroxy-N—((S)-1-(4-(4-methylthiazol-5-yl)phenyl)-4-(4-(4-(2-((4-morpholino-6-(3-(m-tolyl)-1H-pyrazol-1-yl)pyrimidin-2-yl)oxy)ethyl)phenyl)piperazin-1-yl)-4-oxobutyl)pyrrolidine-2-carboxamide]	1 to 100 nM
Cc1cccc(-c2ccn(-c3cc(N4CCOCC4)nc(OCCc4ccc(NC(=O)NC5CCN(C(=O)C[C@H](NC(=O)[C@@H]6C[C@@H](O)CN6C(=O)[C@@H](NC(=O)C6(F)CC6)C(C)(C)C)c6ccc(-c7scnc7C)cc6)CC5)cc4)n3)n2)c1 [Example 78, (2S,4R)-1-((S)-2-(1-fluorocyclopropane-1-carboxamido)-3,3-dimethylbutanoyl)-4-hydroxy-N—((S)-1-(4-(4-methylthiazol-5-yl)phenyl)-3-(4-(3-(4-(2-((4-morpholino-6-(3-(m-tolyl)-1H-pyrazol-1-yl)pyrimidin-2-yl)oxy)ethyl)phenyl)ureido)piperidin-1-yl)-3-oxopropyl) pyrrolidine-2-carboxamide]	1 to 100 nM
